Data: PubChem BioAssay (NCI)
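Where inhibition never reached the appropriate level, the endpoint shown equals the highest concentration tested. Otherwise, values were interpolated linearly from a five-concentration, 48-hour dose response in 96-well plates. Abbreviation: GI50, concentration required for 50% inhibition of growth. TGI marks complete inhibition of growth.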

How the values were obtained:
Experiment in all cases: growth of human tumour cells (NCI), 48 h
[1] = test system: NCI-H226 lung
[2] = test system: NCI-H23 lung
[3] = test system: NCI-H460 lung
[4] = test system: NCI-H522 lung
[5] = test system: NCI/ADR-RES ovarian
[6] = test system: OVCAR-3 ovarian
[7] = test system: OVCAR-4 ovarian
[8] = test system: OVCAR-5 ovarian
[9] = test system: OVCAR-8 ovarian
[10] = test system: PC-3 prostate
[11] = test system: RPMI-8226 leukemia
[12] = test system: RXF 393 renal
[13] = test system: SF-268 CNS
[14] = test system: SF-295 CNS
[15] = test system: SF-539 CNS
[16] = test system: SK-MEL-2 melanoma
[17] = test system: SK-MEL-28 melanoma
[18] = test system: SK-MEL-5 melanoma
[19] = test system: SK-OV-3 ovarian
[20] = test system: SN12C renal
[21] = test system: SNB-19 CNS
[22] = test system: SNB-75 CNS
[23] = test system: SR leukemia
[24] = test system: SW-620 colon
[25] = test system: T-47D breast
[26] = test system: TK-10 renal
[27] = test system: U251 CNS
[28] = test system: UACC-257 melanoma
[29] = test system: UACC-62 melanoma
[30] = test system: UO-31 renal

`O=C(CNc1nc(-c2ccccc2)cs1)Nc1ccc([N+](=O)[O-])cc1Cl` was tested, and the TGI [1] was 19.3 µM, the GI50 [2] was 4.6 µM and the TGI [2] was 17 µM. The GI50 [3] was 9.34 µM, the TGI [3] was 21.2 µM and the GI50 [4] was 2.9 µM. The TGI [4] was 12 µM, the GI50 [5] was 4.11 µM and the TGI [5] was 14.6 µM. The GI50 [6] was 3.62 µM, the TGI [6] was 14.1 µM and the GI50 [7] was 6.55 µM. The TGI [7] was 19.5 µM, the GI50 [8] was 6.18 µM and the TGI [8] was 20.2 µM. It also gave a GI50 [9] of 5.69 µM, a TGI [9] of 18.3 µM and a GI50 [10] of 5.17 µM. The TGI [10] was 17.9 µM, the GI50 [11] was 2.99 µM and the TGI [11] was 13.2 µM. It also gave a GI50 [12] of 4.38 µM, a TGI [12] of 15 µM and a GI50 [13] of 3.98 µM. The TGI [13] was 16.2 µM, the GI50 [14] was 4.47 µM and the TGI [14] was 16.6 µM. The GI50 [15] was 5.36 µM, the TGI [15] was 17.6 µM and the GI50 [16] was 8.86 µM. The TGI [16] was 21 µM, the GI50 [17] was 12.1 µM and the TGI [17] was 24.5 µM. It also gave a GI50 [18] of 3.66 µM, a TGI [18] of 14 µM and a GI50 [19] of 6.18 µM. For the same compound, the TGI [19] was 19.2 µM, the GI50 [20] was 3.72 µM and the TGI [20] was 13.9 µM. The GI50 [21] was 7.71 µM, the TGI [21] was 20.3 µM and the GI50 [22] was 1.73 µM. For the same compound, the TGI [22] was 9.94 µM, the GI50 [23] was 4.67 µM and the TGI [23] was 17.4 µM. It also gave a GI50 [24] of 4.47 µM, a TGI [24] of 16.2 µM and a GI50 [25] of 3.37 µM. The TGI [25] was 13.5 µM, the GI50 [26] was 8.04 µM and the TGI [26] was 20.5 µM. It also gave a GI50 [27] of 4.42 µM, a TGI [27] of 16.8 µM and a GI50 [28] of 7.55 µM. For the same compound, the TGI [28] was 20.2 µM, the GI50 [29] was 3.6 µM and the TGI [29] was 15.4 µM. For the same compound, the GI50 [30] was 3.37 µM and the TGI [30] was 15.5 µM.
